Reference: patent US20090048301A1 (IMCLONE SYSTEMS INCORPORATED, priority 2003, published 2009)

Test system: bovine tubulin
Assay: In vitro tubulin polymerization assay (turbidity at 340 nm)
Format: biochemical
Conditions: 10 μM compound, 30 minute data point, vs 1% DMSO control
Procedure: Briefly, tubulin polymerization is a kinetic process that is temperature-dependent and requires GTP and was performed as follows. Soluble tubulin dimers polymerize into microtubules upon warming, and polymerization in vitro correlates with an increase in turbidity (measured at 340 nm). Lyophilized bovine tubulin (HTS Tubulin—97% tubulin, <3% MAPs—Cytoskeleton Inc.) was ressuspended in G-PEM buffer (80 mM PIPES pH 7, 1 mM EGTA, 1 mM MgCl2, 1 mM GTP, 5% glycerol) to a final concentration of 3 mg/ml and kept at 4° C. Compounds in 100× stock solutions in DMSO were dotted to pre-warmed 96-well plates (Corning Costar 3696), the plates were transferred to a 37° C. plate reader (SPECTRAmax Plus, Molecular Devices), cold tubulin was added to the wells, and the plates were shaken for mixing. The absorbance at 340 nm was determined at one minute intervals for 30 minutes. Kinetic curves with 30 points each were collected for each compound, and the dynamic range was between 0 and 0.4 OD units. The percentage inhibition values were calculated using the 30 minute data point and based on control samples (treated with 1% DMSO only). The assay is a modified version of the HTS kit sold by Cytoskeleton (1830 S. Acoma St., Denver, Colo.), adapted to maximize throughput and reduce time, without reduction in dynamic range or sensitivity, while retaining the ability to detect compounds that inhibit or enhance tubulin polymerization.
Tubulin polymerization is a kinetic process that is temperature-dependent and requires GTP. Soluble tubulin dimers polymerize into microtubules upon warming, and polymerization in vitro correlates with an increase in turbidity (measured at 340 nm). Liophilized bovine tubulin (HTS Tubulin—97% tubulin, <3% MAPs—Cytoskeleton Inc.) was ressuspended in G-PEM buffer (80 mM PIPES pH 7, 1 mM EGTA, 1 mM MgCl2, 1 mM GTP, 5% glycerol) to a final concentration of 3 mg/ml and kept at 4° C. Compounds in 100× stock solutions in DMSO were dotted to pre-warmed 96-well plates (Corning Costar 3696), the plates were immediately transferred to a 37° C. plate reader (SPECTRAmax Plus, Molecular Devices), cold tubulin was added to the wells, plates were shaken for mixing, and absorbance at 340 nm was read every minute for 30 minutes. Kinetic curves with 30 points each were collected for each compound, and the dynamic range was between 0 and 0.4 OD units. Percentage inhibition values were calculated using the 30 minute data point, based on control samples (treated with 1% DMSO only). This assay is a modified version of the HTS kit sold by Cytoskeleton, adapted to maximize throughput and reduce time, without reduction in dynamic range or sensitivity, while retaining the ability to detect compounds that inhibit or enhance tubulin polymerization.

Point of comparison: `O=C1CCCN1CCCNc1ncccc1-c1nnc(Nc2ccc3c(c2)OCCO3)[nH]1` [Compound 48, 1-(3-{3-[5-(2,3-Dihydro-benzo[1,4]dioxin-6-ylamino)-4H-[1,2,4]thiazol-3-yl]-pyridin-2-ylamino}-propyl)-pyrrolidin-2-one], “Tubulin Assay: percent inhibition at 10 μM based on 30 minute data” value 21%. Against it:
- COc1ccc(Nc2nnc(-c3cccnc3Nc3ccc4cn[nH]c4c3)[nH]2)cc1 [Compound 19, (1H-Indazol-6-yl)-{3-[5-(4-methoxy-phenylamino)-4H-[1,2,4]triazol-3-yl]-pyridin-2-yl}-amine] — lower, 20%
- COc1ccc(Nc2nnc(-c3cccnc3Nc3ccc4cn[nH]c4c3)[nH]2)c(OC)c1 [Compound 22, {3-[5-(2,4-Dimethoxy-phenylamino)-4H-[1,2,4]triazol-3-yl]-pyridin-2-yl}-(1H-indazol-6-yl)-amine] — higher, 24%
- COc1cccc(Nc2nnc(-c3cccnc3NCc3cc(OC)cc(OC)c3)[nH]2)c1 [Compound 23, (3,5-Dimethoxy-benzyl)-{3-[5-(3-methoxy-phenylamino)-4H-[1,2,4]triazol-3-yl]-pyridin-2-yl}-amine] — higher, 22%
- COc1cc(CNc2ncccc2-c2nnc(Nc3ccc(OC)cc3OC)[nH]2)cc(OC)c1 [Compound 24, (3,5-Dimethoxy-benzyl)-{3-[5-(2,4-dimethoxy-phenylamino)-4H-[1,2,4]triazol-3-yl]-pyridin-2-yl}-amine] — lower, 20%
- COc1ccc(Nc2nnc(-c3cccnc3NCc3cccnc3)[nH]2)cc1 [Compound 26, {3-[5-(4-Methoxy-phenylamino)-4H-[1,2,4]triazol-3-yl]-pyridin-2-yl}-pyridin-3-ylmethyl-amine] — lower, 20%
- COc1ccc(Nc2nnc(-c3cccnc3NCc3cccnc3)[nH]2)c(OC)c1 [Compound 27, {3-[5-(2,4-Dimethoxy-phenylamino)-4H-[1,2,4]triazol-3-yl]-pyridin-2-yl}-pyridin-3-ylmethyl-amine] — lower, 20%
- COc1ccc(OC)c(Nc2nnc(-c3cccnc3NCc3cccnc3)[nH]2)c1 [Compound 28, {3-[5-(2,5-Dimethoxy-phenylamino)-4H-[1,2,4]triazol-3-yl]-pyridin-2-yl}-pyridin-3-ylmethyl-amine] — higher, 22%
- COc1cccc(Nc2nnc(-c3cccnc3NCCCn3ccnc3)[nH]2)c1 [Compound 29, (3-Imidazol-1-yl-propyl)-{3-[5-(3-methoxy-phenylamino)-4H-[1,2,4]triazol-3-yl]-pyridin-2-yl}-amine] — higher, 28%
- c1cnc(NCc2ccc3c(c2)OCCO3)c(-c2nnc(Nc3ccc4c(c3)OCO4)[nH]2)c1 [Compound 34, {3-[5-(Benzo[1,3]dioxol-5-ylamino)-4H-[1,2,4]triazol-3-yl]-pyridin-2-yl}-(2,3-dihydro-benzo[1,4]dioxin-6-ylmethyl)-amine] — higher, 69%
- COc1cccc(Nc2nnc(-c3cccnc3NCc3ccc4c(c3)OCCO4)[nH]2)c1 [Compound 35, (2,3-Dihydro-benzo[1,4]dioxin-6-ylmethyl)-{3-[5-(3-methoxy-phenylamino)-4H-[1,2,4]triazol-3-yl]-pyridin-2-yl}-amine] — higher, 66%
- c1cnc(NCc2ccc3c(c2)CCO3)c(-c2nnc(Nc3ccc4c(c3)OCO4)[nH]2)c1 [Compound 36, {3-[5-(Benzo[1,3]dioxol-5-ylamino)-4H-[1,2,4]triazol-3-yl]-pyridin-2-yl}-(2,3-dihydro-benzofuran-5-ylmethyl)-amine] — higher, 67%
- COc1cccc(Nc2nnc(-c3cccnc3NCc3ccc4c(c3)CCO4)[nH]2)c1 [Compound 37, (2,3-Dihydro-benzofuran-5-ylmethyl)-{3-[5-(3-methoxy-phenylamino)-4H-[1,2,4]triazol-3-yl]-pyridin-2-yl}-amine] — higher, 91%
- c1cncc(CCNc2ncccc2-c2nnc(Nc3ccc4c(c3)OCCO4)[nH]2)c1 [Compound 41, {3-[5-(2,3-Dihydro-benzo[1,4]dioxin-6-ylamino)-4H-[1,2,4]triazol-3-yl]-pyridin-2-yl}-(2-pyridin-3-yl-ethyl)-amine] — higher, 23%
- COc1cccc(Nc2nnc(-c3cccnc3NCC3COCCO3)[nH]2)c1 (centres unmarked) [Compound 46, [1,4]Dioxan-2-ylmethyl-{3-[5-(3-methoxy-phenylamino)-4H-[1,2,4]triazol-3-yl]-pyridin-2-yl}-amine] — higher, 25%
- c1cnc(NCC2COCCO2)c(-c2nnc(Nc3ccc4c(c3)OCO4)[nH]2)c1 (centres unmarked) [Compound 47, {3-[5-(Benzo[1,3]dioxol-5-ylamino)-4H-[1,2,4]triazol-3-yl]-pyridin-2-yl}-[1,4]dioxan-2-ylmethyl-amine] — higher, 24%
- COc1cccc(CNc2ncccc2-c2nnc(Nc3ccc4c(c3)OCCO4)[nH]2)c1 [Compound 52, {3-[5-(2,3-Dihydro-benzo[1,4]dioxin-6-ylamino)-4H-[1,2,4]triazol-3-yl]-pyridin-2-yl}-(3-methoxy-benzyl)-amine] — higher, 35%
- c1cnc(NCC2COCCO2)c(-c2nnc(Nc3ccc4c(c3)OCCO4)[nH]2)c1 (centres unmarked) [Compound 55, {3-[5-(2,3-Dihydro-benzo[1,4]dioxin-6-ylamino)-4H-[1,2,4]triazol-3-yl]-pyridin-2-yl}-[1,4]dioxan-2-ylmethyl-amine] — higher, 23%
- COc1ccc(CNc2nnc(-c3cccnc3NCCCN3CCCC3=O)[nH]2)cc1 [Compound 57, 1-(3-{3-[5-(4-Methoxy-benzylamino)-4H-[1,2,4]triazol-3-yl]-pyridin-2-ylamino}-propyl)-pyrrolidin-2-one] — higher, 22%
- COc1cc(Nc2ncccc2-c2nnc(Nc3cccc(NCc4ccc5c(c4)OCO5)c3)[nH]2)cc(OC)c1 [Compound 60, N-Benzo[1,3]dioxol-5-ylmethyl-N′-{5-[2-(3,5-dimethoxy-phenylamino)-pyridin-3-yl]-4H-[1,2,4]triazol-3-yl}-benzene-1,3-diamine] — higher, 99%
- COc1cc(Nc2ncccc2-c2nnc(Nc3cccc(N)c3)[nH]2)cc(OC)c1 [Compound 60b, N-{5-[2-(3,5-dimethoxy-phenylamino)-pyridin-3-yl]-4H-[1,2,4]triazol-3-yl}-benzene-1,3-diamine] — higher, 39%
- COc1cc(Nc2ncccc2-c2nnc(Nc3cccc(NCC4CCOCC4)c3)[nH]2)cc(OC)c1 [Compound 61, N-{5-[2-(3,5-Dimethoxy-phenylamino)-pyridin-3-yl]-4H-[1,2,4]triazol-3-yl}-N′-(tetrahydro-pyran-4-ylmethyl)-benzene-1,3-diamine] — higher, 24%
- COc1cc(Nc2ncccc2-c2nnc(Nc3cccc(NCc4ccco4)c3)[nH]2)cc(OC)c1 [Compound 62, N-{5-[2-(3,5-Dimethoxy-phenylamino)-pyridin-3-yl]-4H-[1,2,4]triazol-3-yl}-N′-furan-2-ylmethyl-benzene-1,3-diamine] — higher, 73%
- COc1cc(Nc2ncccc2-c2nnc(Nc3cccc(NS(=O)(=O)c4ccc5c(c4)CCO5)c3)[nH]2)cc(OC)c1 [Compound 63, 2,3-Dihydro-benzofuran-5-sulfonic acid (3-{5-[2-(3,5-dimethoxy-phenylamino)-pyridin-3-yl]-4H-[1,2,4]triazol-3-ylamino}-phenyl)-amide] — higher, 24%
- COc1cc(Nc2ncccc2-c2nnc(Nc3cccc(NS(=O)(=O)c4ccc5c(c4)OCCO5)c3)[nH]2)cc(OC)c1 [Compound 64, 2,3-Dihydro-benzo[1,4]dioxine-6-sulfonic acid (3-{5-[2-(3,5-dimethoxy-phenylamino)-pyridin-3-yl]-4H-[1,2,4]triazol-3-ylamino}-phenyl)-amide] — higher, 29%
- COc1cc(Nc2ncccc2-c2nc(Nc3ccc4c(c3)OCO4)n(C)n2)cc(OC)c1 [Compound 65, {3-[5-(Benzo[1,3]dioxol-5-ylamino)-1-methyl-1H-[1,2,4]triazol-3-yl]-pyridin-2-yl}-(3,5-dimethoxy-phenyl)-amine] — higher, 77%
